Our source for the TGI values is PubChem BioAssay (NCI).

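Each compound was tested at five concentrations against cells in 96-well plates for 48 hours. TGI is the concentration that stops growth completely.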

Some test systems named below: COLO 205 colon; KM12 colon; RXF 393 renal; MOLT-4 leukemia; SF-539 CNS; OVCAR-8 ovarian; EKVX NSCLC; HS 578T breast; HT29 colon; HOP-62 NSCLC; TK-10 renal; 786-0 renal; SF-295 CNS; MCF7 breast; NCI-H226 lung; LOX IMVI melanoma; SNB-19 CNS; U251 CNS; UACC-62 melanoma; HCC-2998 colon.
Holding throughout (experiment): growth of human tumour cells (NCI), 48 h

Take `N=c1oc2cc(O)ccc2cc1C(=O)NCc1ccccc1`: the TGI is 25.4 µM with COLO 205 colon; over 100 µM with KM12 colon; 85 µM in the experiment with RXF 393 renal; 53.3 µM in the experiment on MOLT-4 leukemia; 63.3 µM in the experiment on SF-539 CNS; 68.1 µM in the experiment with OVCAR-8 ovarian. The TGI is over 100 µM in the experiment on EKVX NSCLC; 45.4 µM in the experiment on HS 578T breast; over 100 µM in the experiment on HT29 colon; over 100 µM with HOP-62 NSCLC; over 100 µM in the experiment on TK-10 renal; over 100 µM in the experiment with 786-0 renal. For the same compound, the TGI in the experiment on SF-295 CNS was over 100 µM; in the experiment with MCF7 breast, over 100 µM; in the experiment on NCI-H226 lung, over 100 µM; in the experiment on LOX IMVI melanoma, over 100 µM; in the experiment on SNB-19 CNS, 96.9 µM; with U251 CNS, over 100 µM.

For the compound `Nc1ncnc2ccc(Sc3ccc4ncnc(N)c4c3)cc12`, the TGI in the experiment with COLO 205 colon, with UACC-62 melanoma, with KM12 colon, with RXF 393 renal, with MOLT-4 leukemia and with SF-539 CNS was over 100 µM each time. In addition, the TGI in the experiment on OVCAR-8 ovarian, with EKVX NSCLC, in the experiment on HS 578T breast, in the experiment on HT29 colon, in the experiment with HOP-62 NSCLC and in the experiment with TK-10 renal was over 100 µM throughout. The TGI in the experiment with 786-0 renal, with SF-295 CNS, in the experiment on MCF7 breast, in the experiment on NCI-H226 lung, in the experiment on LOX IMVI melanoma and in the experiment with SNB-19 CNS was over 100 µM in each case. Also, the TGI with U251 CNS is over 100 µM.

Turning to `CCCC1(NC(=O)C(F)(F)F)CC(OC)OC2COC(c3ccccc3)OC21` (stereo unspecified), the TGI with COLO 205 colon was 48.6 µM; with UACC-62 melanoma, over 100 µM; with RXF 393 renal, over 100 µM; in the experiment with MOLT-4 leukemia it was over 100 µM; with HCC-2998 colon, over 100 µM; in the experiment with SF-539 CNS it was over 100 µM. Moreover, the TGI in the experiment on OVCAR-8 ovarian, in the experiment with EKVX NSCLC, in the experiment with HS 578T breast, in the experiment on HOP-62 NSCLC, in the experiment with 786-0 renal and in the experiment with SF-295 CNS was over 100 µM throughout. For the same compound, the TGI with MCF7 breast, with NCI-H226 lung, in the experiment on LOX IMVI melanoma, with SNB-19 CNS and with U251 CNS was over 100 µM in each case.

As for `COC(O)C(=O)c1c2c(cc3c1CC1(Cc4cc5c(cc4C1)CCC5)C3)CCC2` (stereo unspecified), the TGI was determined as 29 µM with RXF 393 renal; 33.8 µM in the experiment with MOLT-4 leukemia; 42.8 µM in the experiment on HCC-2998 colon; 31.5 µM with SF-539 CNS; 33.6 µM in the experiment with OVCAR-8 ovarian; 41.1 µM in the experiment on EKVX NSCLC. Besides, the TGI in the experiment on HS 578T breast came out at 53.3 µM; in the experiment on HT29 colon it was 22.7 µM; in the experiment with HOP-62 NSCLC, 30.2 µM; in the experiment on TK-10 renal, 32.1 µM; with 786-0 renal, 27 µM; with SF-295 CNS it was 41.8 µM. The TGI was 33.9 µM with MCF7 breast, 22.8 µM with LOX IMVI melanoma, 36.1 µM in the experiment on SNB-19 CNS and 25.7 µM with U251 CNS.

`CCOC(=O)c1ccc(N=C2C(=S)N(c3ccc(C(=O)OCC)cc3)C(=N)N2/N=C/c2ccccc2)cc1`: the TGI turned out to be 25 µM in the experiment on COLO 205 colon; 38.3 µM in the experiment on UACC-62 melanoma; 31.2 µM in the experiment on KM12 colon; 19.3 µM with RXF 393 renal; 58 µM with HCC-2998 colon; 51.2 µM with SF-539 CNS. Besides, the TGI with OVCAR-8 ovarian is over 100 µM; in the experiment on EKVX NSCLC, over 100 µM; in the experiment on HS 578T breast, over 100 µM; in the experiment with HT29 colon, over 100 µM; in the experiment with TK-10 renal it was 62.2 µM; in the experiment on 786-0 renal it was 30 µM. For the same compound, the TGI with SF-295 CNS was determined as 70.4 µM; in the experiment with MCF7 breast, 28.5 µM; in the experiment with NCI-H226 lung, 31.4 µM; in the experiment on SNB-19 CNS, 44.5 µM.

On to `CC(=O)N1C(c2[nH]c3ccccc3c2-c2ccccc2)CCN1c1ccccc1` (stereo unspecified), for which the TGI with COLO 205 colon, with RXF 393 renal, with MOLT-4 leukemia, in the experiment on HCC-2998 colon, with SF-539 CNS and in the experiment on OVCAR-8 ovarian was over 10 µM each time. Moreover, the TGI in the experiment with EKVX NSCLC, in the experiment on HS 578T breast, with HT29 colon, in the experiment on HOP-62 NSCLC, in the experiment on TK-10 renal and in the experiment with 786-0 renal was over 10 µM in each case. Moreover, the TGI in the experiment with SF-295 CNS, in the experiment with MCF7 breast, with NCI-H226 lung, in the experiment on LOX IMVI melanoma and in the experiment with SNB-19 CNS was over 10 µM each time.

Consider `O=Nc1c(O)cc(Nc2ccc(Br)cc2)c2ccccc12`, for which the TGI with COLO 205 colon is 26.6 µM; in the experiment with KM12 colon, 23.1 µM; with RXF 393 renal it was 50.3 µM; with MOLT-4 leukemia, 42 µM; in the experiment with HCC-2998 colon, 19.4 µM; in the experiment with SF-539 CNS, over 100 µM. Moreover, the TGI with OVCAR-8 ovarian is 37.2 µM; with EKVX NSCLC, over 100 µM; in the experiment with HS 578T breast it was over 28.4 µM; in the experiment with HT29 colon, 28.1 µM; in the experiment on HOP-62 NSCLC it was 19.1 µM; with TK-10 renal, 27.7 µM. Moreover, the TGI in the experiment on 786-0 renal was 27.3 µM; with SF-295 CNS it was 2.98 µM; with MCF7 breast it was 17.8 µM; in the experiment on NCI-H226 lung, 10.5 µM; with LOX IMVI melanoma it was over 31.2 µM; with SNB-19 CNS, 11.8 µM. Also, the TGI in the experiment with U251 CNS came to 40.8 µM.

For `CC(=O)CCCCC(=O)Nc1ccc(CC(NC(=O)OC(C)(C)C)C(=O)NCC(=O)OCc2ccccc2)cc1` (stereo unspecified), the TGI with COLO 205 colon worked out at 34.7 µM; in the experiment on KM12 colon it was 52.1 µM; in the experiment on RXF 393 renal it was 54.5 µM; with MOLT-4 leukemia, 66.4 µM; in the experiment on HCC-2998 colon, 38 µM; in the experiment with SF-539 CNS, 34.1 µM. The TGI was 39.7 µM in the experiment with OVCAR-8 ovarian; over 100 µM with EKVX NSCLC; 48.4 µM in the experiment with HS 578T breast; 36.7 µM with HT29 colon; 26.8 µM with HOP-62 NSCLC; over 100 µM in the experiment with TK-10 renal. Besides, the TGI turned out to be 49 µM with 786-0 renal; 35.6 µM in the experiment on SF-295 CNS; 49.5 µM in the experiment on MCF7 breast; 94 µM in the experiment with NCI-H226 lung; 29.3 µM in the experiment with LOX IMVI melanoma; 55 µM in the experiment on SNB-19 CNS. In addition, the TGI with U251 CNS amounted to 32.7 µM.
